# From US7691416B2, “Methods of treating vascular disease” (priority 2002, dated 2010)
# Test system: graft infiltration by activated leukocytes
# Test: Immunostaining and cell population analysis of the adventitia of aortic grafts
# Type: in vivo, rat
# Settings: 56 days after transplantation
# Source text: Animals. Male (250-350 g) Brown Norway rats (RT1^n) were used as aortic graft donors and male (250-350 g) Lewis rats (RT11) as recipients. Dawley (400-450 g) rats were used in the balloon injury model. Adult male C57BL/6, C57/S129, p21^−/− and p53^−/− null mice were purchased from Jackson Laboratory (Bar Harbor, Me.). mkk3^(−/−) null mice were generated as described Lu et al. (EMBO. 18:1845-1857 (1999)). The inos^−/− and enos^−/− mice were bred at the University of Pittsburgh. Aortic transplant model. Aortic transplantation was performed as described in Shimizu et al. (Nat. Med. 7:738-741 (2001)). Briefly, 3 to 4 cm of descending aorta was harvested from the donor and implanted between the renal arteries and the aortic bifurcation of the recipient. Both edges of the native abdominal aorta were ligated. Balloon injury model. Balloon angioplasty was carried out as described in Murakami et al. (Atherosclerosis 157:361-368 (2001)). Briefly, a 2 Fr. arterial embolectomy catheter (Baxter, Chicago, Ill.) was inserted into the common carotid artery, and injury was created by inflating the balloon to 5 atmospheres of pressure for 5 minutes. The arteries were flushed and the external carotid artery was ligated, ensuring return of blood flow through the common and internal carotid arteries. Injury of the vessel wall and subsequent pathological analysis was made in a manner that was blinded to the treatment group. CO exposure. CO was delivered to animals as described in Otterbein et al. (Nat. Med. 6:422-428 (2000)). […] In the balloon injury model, rats received either no pretreatment or were exposed to CO (250 ppm) for one hour prior to injury. Following surgery rats were housed in room air for two weeks. Cells. Primary mouse and rat smooth muscle cells (SMC) were isolated and cultured as described in Laubach et al. (Proc Natl Acad Sci USA 92:10688-9 (1995)). Mouse SMC isolated from HO-1^−/− mice were obtained as described in Duckers et al. (Nat. Med. 7:693-698 (2001)). Cell treatment and reagents. Guanylate cyclase inhibitor 1H(1,2,4) oxadiazolo(4,3-a)quinoxalin-1 (ODQ; Calbiochem-Novabiochem, San Diego, Calif.; 10-100 μM) and p38 MAPK inhibitor pyridinyl imidazol SB203580 (Calbiochem; 5-20 μM) were dissolved in DMSO. The cGMP analogue 8-bromo-cGMP sodium salt (8-Br-cGMP; Sigma-Aldrich, St. Louis, Mo.; 10-100 μM) and the PKG inhibitor (10-100 μM; Alexis Biochemicals) were dissolved in water. […] [^3H]thymidine incorporation was measured by scintillation spectroscopy and presented as mean counts/min/well. […] Areas from eight to ten captured images were calculated using digital imaging software as number of pixels corresponding to those areas. Twenty-four to forty-eight sections from each group were statistically analyzed with SPSS software version 10. […]
# [1] = adventitia of allogeneic aortic grafts
smiles,measurement,setting,value
"[C-]#[O+] [CO, carbon monoxide]","Accumulation of CD45+/CD3+ T cells, inhibition versus air treated controls",[1],57±22%
same,"Accumulation of CD45+/CD68+ monocyte/macrophages, inhibition versus air treated controls",[1],65±24%
same,Expression of MHC II antigens and CD54/ICAM-1 (Mø activation),[1],inhibited
same,"Graft infiltration by activated leukocytes (CD45+), inhibition versus air treated controls","maximal effect, 700 to 1000 ppm of CO",52±20%
